Assay results published in PMC10643130, “Molecular basis for selective uptake and elimination of organic anions in the kidney by OAT1” (Nature Structural & Molecular Biology, 2023).
Changes are numbered by the printed parent chain. Several values for one entry are separate records, joined by “and”; a condition that tells them apart may be missing. Equal entries are not always repeated. Where two headings read alike, the source gives them in different places. One block for each molecule: values may come before it.

How the values were obtained:
[1] = biological target: T1, wild-type human OAT1 (HsOAT1) (Homo sapiens, UniProt Q4U2R8); assay: Cell-based 6-CF transport assay, wild-type HsOAT1 in HeLa cells; conditions: for effect on OAT1 transport: 10 mM sodium phosphate; for 6-CF transport in presence of dicarboxylate, single experiments: dicarboxylate 0.5 mM, 8 minutes, n = 8
T1 sequence (Q4U2R8 1-563): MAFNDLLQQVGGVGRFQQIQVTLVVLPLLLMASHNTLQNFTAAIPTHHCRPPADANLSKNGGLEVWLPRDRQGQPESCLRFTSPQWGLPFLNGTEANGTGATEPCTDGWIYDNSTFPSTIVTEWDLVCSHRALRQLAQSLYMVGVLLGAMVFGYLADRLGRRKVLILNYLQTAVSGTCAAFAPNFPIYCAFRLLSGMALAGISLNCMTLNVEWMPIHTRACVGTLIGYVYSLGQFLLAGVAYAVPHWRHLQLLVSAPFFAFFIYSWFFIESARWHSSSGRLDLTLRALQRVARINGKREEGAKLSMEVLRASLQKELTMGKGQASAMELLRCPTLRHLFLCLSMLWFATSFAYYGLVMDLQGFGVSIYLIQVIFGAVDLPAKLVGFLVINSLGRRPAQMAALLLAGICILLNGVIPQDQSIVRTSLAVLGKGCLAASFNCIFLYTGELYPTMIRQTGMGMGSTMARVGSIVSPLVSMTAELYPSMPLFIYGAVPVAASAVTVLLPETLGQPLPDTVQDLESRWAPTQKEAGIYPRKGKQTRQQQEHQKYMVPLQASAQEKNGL
Method: (§1) To assay HsOAT1 transporter activity the model substrate 6-carboxyfluorescein (6-CF)[46],[47]
(§2) For transport assays, 1 × 10^5 cells per well were seeded into 24-well plates and 24 h later transfected using FUGENE HD (Promega E2311) Transfection Reagent (0.4 μg DNA per 1 μl of FUGENE per well) with HsOAT1 constructs containing a C-terminal FLAG tag in the vector pCDNA3.1 for 36 h. Expression of each mutant of HsOAT1 was assessed through western blotting on membrane fractions using an anti-FLAG antibody 1:3,000 dilution (Merck F1804), using a loading control of anti-β-actin 1:5,000 dilution (Merck A2228) (Extended Data Fig. 4). […] Background fluorescence was subtracted from cells transfected with the empty plasmid, and the data were normalized to 100%. To assess the activity of HsOAT1 in the presence and absence of chloride, the buffer was 120 mM NaCl, 28 mM glucose and 25 mM HEPES, pH 7.2 or for chloride-free conditions, and 120 mM sodium gluconate was used. […] To study the effect of ligands or inhibitors, the compound of interest was added to the assay buffer at the desired concentration. […] Each concentration was repeated three times to calculate standard errors, and the whole experiment was repeated three times to calculate the mean IC50 and standard error.

[2] = biological target: T2, HsOAT1 truncation (lacks last 10 amino acids) (Homo sapiens, UniProt Q4U2R8); assay: Cell-based 6-CF transport assay, truncated HsOAT1 lacking the last 10 amino acids; conditions: Truncation (+P), 0.1 mM pemetrexed
T2 construct: expressed in transfected cells; host or cells: HeLa
T2 sequence (Q4U2R8 1-552 limits assumed): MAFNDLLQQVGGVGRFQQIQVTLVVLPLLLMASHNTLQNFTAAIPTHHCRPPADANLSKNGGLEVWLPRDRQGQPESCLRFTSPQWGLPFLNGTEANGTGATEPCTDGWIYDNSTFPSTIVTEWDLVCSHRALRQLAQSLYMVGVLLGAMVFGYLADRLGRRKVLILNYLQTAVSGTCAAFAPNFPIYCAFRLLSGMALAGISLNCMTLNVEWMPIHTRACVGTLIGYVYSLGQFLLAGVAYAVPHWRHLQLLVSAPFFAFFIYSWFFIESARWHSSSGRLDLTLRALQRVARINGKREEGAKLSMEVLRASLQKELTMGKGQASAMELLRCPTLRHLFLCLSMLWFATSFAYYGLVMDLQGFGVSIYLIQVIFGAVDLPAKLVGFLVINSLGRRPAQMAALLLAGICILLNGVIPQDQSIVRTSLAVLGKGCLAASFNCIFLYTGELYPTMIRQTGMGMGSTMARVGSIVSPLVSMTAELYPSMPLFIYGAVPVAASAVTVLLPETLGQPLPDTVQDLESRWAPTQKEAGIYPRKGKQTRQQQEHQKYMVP

[3] = test system: OAT3; conditions: cited from earlier work
[4] = test system: URAT1; conditions: cited from earlier work
[5] = test system: OAT2; conditions: cited from earlier work
[6] = biological target: T3, human OAT1 Tyr230Phe (Y230F) (Homo sapiens, UniProt Q4U2R8, Y230F); assay: Cell-based 6-CF transport assay, HsOAT1 Tyr230Phe mutant; conditions: 8 min
T3 sequence (Q4U2R8 1-563 Y230F): T1 sequence (Q4U2R8 1-563) with Y230F

[7] = biological target: T4, OAT1 Ser350Ala (S350A) mutant, human (Homo sapiens, UniProt Q4U2R8, S350A); assay: Cell-based 6-CF transport assay, HsOAT1 Ser350Ala mutant; conditions: pH 7.2, probe 6-carboxyfluorescein (6-CF), 10 μM 6-CF, HeLa cells, mean ± s.d.
T4 sequence (Q4U2R8 1-563 S350A): T1 sequence (Q4U2R8 1-563) with S350A

[8] = biological target: T1, wild-type human OAT1 (HsOAT1); assay: cell-based
Method: as §1, §2

[9] = biological target: T5, human OAT1 Gly227Ala (G227A) (Homo sapiens, UniProt Q4U2R8, G227A); assay: cell-based
T5 sequence (Q4U2R8 1-563 G227A): T1 sequence (Q4U2R8 1-563) with G227A

[10] = biological target: T6, RnOat1 (Rattus norvegicus, UniProt O35956); assay: Sybody binding by biolayer interferometry; design: unit not given here
T6 construct: made in house; host or cells: Sf9 insect cells (baculovirus)
T6 sequence (O35956 1-551): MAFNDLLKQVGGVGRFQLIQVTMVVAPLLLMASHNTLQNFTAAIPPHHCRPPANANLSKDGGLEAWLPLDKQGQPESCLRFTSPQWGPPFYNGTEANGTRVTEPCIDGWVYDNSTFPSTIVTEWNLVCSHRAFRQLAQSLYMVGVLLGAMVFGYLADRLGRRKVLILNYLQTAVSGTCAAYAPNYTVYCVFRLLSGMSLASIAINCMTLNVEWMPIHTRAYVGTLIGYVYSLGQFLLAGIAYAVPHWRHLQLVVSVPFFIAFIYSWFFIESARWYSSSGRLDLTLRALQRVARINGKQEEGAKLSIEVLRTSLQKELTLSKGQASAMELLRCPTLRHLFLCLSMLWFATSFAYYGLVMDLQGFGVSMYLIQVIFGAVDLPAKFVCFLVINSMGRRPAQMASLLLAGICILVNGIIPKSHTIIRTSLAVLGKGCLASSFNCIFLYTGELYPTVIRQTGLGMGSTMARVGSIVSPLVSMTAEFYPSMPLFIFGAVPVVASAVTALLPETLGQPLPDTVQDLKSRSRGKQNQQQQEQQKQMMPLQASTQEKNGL
Method: Sybody selection was performed against C-terminally Avi-Flag-tagged and biotinylated RnOat1 using methods described previously in ref. [48]. A high-affinity sybody with a slow off rate, as measured using biolayer interferometry (Octet Red 384), was identified from the concave library. The sybody was cloned and expressed as a C-terminally MycHis tagged construct from the pSB-init vector (Addgene no. 110100), (pSB_Syb25 Addgene no. 197992).

[11] = biological target: T7, Biotinylated RnOat1 with a C-terminal Avi-tag followed by a FLAG tag (Rattus norvegicus, UniProt O35956, biotin (on the Avi-tag, by GST-BirA)); assay: BLI; Octet Red 384; who was immobilised and the buffer are not told; n = 4 independent experiments; conditions: both partners purified
T7 construct: Organic anion transporter 1 (Oat1, Slc22a6) of Rattus norvegicus; Used for the sybody selection; The host is likely Sf9 as for the structural construct (surmise); also called C-terminally Avi-Flag-tagged and biotinylated RnOat1; not shown: Avi-tag, C-terminal, kept

[12] = 8 min, read-out: 6-CF uptake, Mean

Molecule: O=C(O)CCCCCC(=O)O [pimelate]
6-CF transport in presence of dicarboxylate, single experiments [1]: 18.1607% and 12.7635% and 14.6181% and 17.3198% and 16.4606% and 11.6692%

Molecule: CCCN(CCC)S(=O)(=O)c1ccc(C(=O)O)cc1 [probenecid]
inhibition of OAT3 [3]: inhibitor | inhibition of URAT1 [4]: inhibitor | inhibition of OAT2 [5]: poor inhibitor

Molecule: O=C(O)CCC(=O)O [succinate]
6-CF transport in presence of dicarboxylate, single experiments [1]: 62.6553% and 71.4816% and 66.0745% and 69.225% and 69.843% and 74.8162% and 55.8733% and 76.8934%

More lines, now with the values ahead:

inhibition of 6-CF uptake ([1]; 0.1 mM in assay buffer): fully inhibited | substrate quality in 6-CF assay ([1]; 0.5 mM, uptake after 8 minutes, similar to literature ref 20): poor substrates | 6-CF uptake, MEAN ([1]; WT (+P), 0.1 mM pemetrexed, 1 min): 22 | 6-CF uptake, MEAN ([1]; WT (+P), 0.1 mM pemetrexed, 5 min): 18.75 | 6-CF uptake, MEAN ([1]; WT (+P), 0.1 mM pemetrexed, 8 min): 24.75 | 6-CF uptake, MEAN ([1]; WT (+P), 0.1 mM pemetrexed, 10 min): 17.25 | 6-CF uptake in presence of substrate, single experiments ([1]; substrate 0.5 mM, uptake after 8 minutes): 71% | 6-CF uptake, MEAN ([2]; 1 min): 19.52 | 6-CF uptake, MEAN ([2]; 5 min): 17.65 | 6-CF uptake, MEAN ([2]; 8 min): 16.52 | 6-CF uptake, MEAN ([2]; 10 min): 12.32
Molecule: Nc1nc2[nH]cc(CCc3ccc(C(=O)N[C@@H](CCC(=O)O)C(=O)O)cc3)c2c(=O)[nH]1 [pemetrexed]

effect on OAT1 transport [1]: no impact | effect on OAT1 transport ([1]; listed as sodium phosphate): no effect
Molecule: O=P(O)(O)O [phosphate, sodium phosphate]

remaining activity at 1 µM ([6]; read-out: 6-CF uptake, Mean): 99% | remaining activity at 2 µM ([6]; read-out: 6-CF uptake, Mean): 95.2% | remaining activity at 2.30103 µM ([6]; read-out: 6-CF uptake, Mean): 87% | remaining activity at 2.60206 µM ([6]; read-out: 6-CF uptake, Mean): 68.5% | remaining activity at 3 µM ([6]; read-out: 6-CF uptake, Mean): 52.3% | remaining activity at 3.17609 µM ([6]; read-out: 6-CF uptake, Mean): 35% | IC50 ([6]; Tyr230Phe, 10 μM 6-CF, HeLa cells, mean ± s.d.): 450 ± 26 µM | 6-CF uptake, MEAN [1]: 99% | 6-CF uptake, MEAN ([1]; WT Tenofovir, uM column 2): 79% | 6-CF uptake, MEAN ([1]; WT Tenofovir, uM column 2.30103): 65% | 6-CF uptake, MEAN ([1]; WT Tenofovir, uM column 2.60206): 35% | 6-CF uptake, MEAN ([1]; WT Tenofovir, uM column 3): 24% | 6-CF uptake, MEAN ([1]; WT Tenofovir, uM column 3.17609): 12% | IC50 at 8 min [7]: 241 ± 11 µM | IC50 [8]: 120 ± 19 µM | remaining activity at 1 µM [9, 12]: 99.8% | remaining activity at 2 µM [9, 12]: 82.7% | remaining activity at 2.30103 µM [9, 12]: 69.5% | remaining activity at 2.60206 µM [9, 12]: 40.3% | remaining activity at 3 µM [9, 12]: 31.2% | remaining activity at 3.17609 µM [9, 12]: 15.6% | effect of Gly227Ala mutant on tenofovir recognition ([9]; versus wild type, Fig. 2f): no discernible effect
Molecule: C[C@H](Cn1cnc2c(N)ncnc21)OCP(=O)(O)O [tenofovir]

binding response (ED Fig 3e source data) ([10]; Conc. 7.81 nM): 0.004 | binding response (ED Fig 3e source data) ([10]; Conc. 15.625 nM): 0.0165 | binding response (ED Fig 3e source data) ([10]; Conc. 31.25 nM): 0.04633 | binding response (ED Fig 3e source data) ([10]; Conc. 62.5 nM): 0.1353 | binding response (ED Fig 3e source data) ([10]; Conc. 250 nM): 0.201 | binding response (ED Fig 3e source data) ([10]; Conc. 500 nM): 0.2162 | binding response (ED Fig 3e source data) ([10]; Conc. 1000 nM): 0.2225 | binding response (ED Fig 3e source data) ([10]; Conc. 2000 nM): 0.23 | Kd [11]: 0.075 µM
B1: Sybody (synthetic nanobody) against RnOat1, Syb25 (VHH)
VHH: QVQLVESGGGLVQAGGSLRLSCAASGFPVKTEWMEWYRQAPGKEREWVAAIWSYGSGTRYADSVKGRFTISRDNAKNTVYLQMNSLKPEDTAVYYCLVRVGSWYHGQGTQVTVSA
notes: selected from the concave sybody library; source: expressed from the pSB-init vector
